Where two headings read alike, the source gives them in different places.
Target: c-Met (Homo sapiens, UniProt P08581)
Assay: Ki determination for the inhibition of c-Met kinase activity (standard coupled enzyme system)
Assay type: biochemical
Conditions: coupled enzyme system, 200 μM ATP, 80 nM c-Met, 30° C., read-out: c-Met Ki
In short: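 Continuous coupled-enzyme (PK/LDH, NADH depletion) assay with 80 nM c-Met, 200 μM ATP and 10 μM polyGluTyr in 100 mM HEPES pH 7.5, 10 mM MgCl2, 1.5% DMSO at 30 °C.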

Chain of c-Met (P08581 25-1390): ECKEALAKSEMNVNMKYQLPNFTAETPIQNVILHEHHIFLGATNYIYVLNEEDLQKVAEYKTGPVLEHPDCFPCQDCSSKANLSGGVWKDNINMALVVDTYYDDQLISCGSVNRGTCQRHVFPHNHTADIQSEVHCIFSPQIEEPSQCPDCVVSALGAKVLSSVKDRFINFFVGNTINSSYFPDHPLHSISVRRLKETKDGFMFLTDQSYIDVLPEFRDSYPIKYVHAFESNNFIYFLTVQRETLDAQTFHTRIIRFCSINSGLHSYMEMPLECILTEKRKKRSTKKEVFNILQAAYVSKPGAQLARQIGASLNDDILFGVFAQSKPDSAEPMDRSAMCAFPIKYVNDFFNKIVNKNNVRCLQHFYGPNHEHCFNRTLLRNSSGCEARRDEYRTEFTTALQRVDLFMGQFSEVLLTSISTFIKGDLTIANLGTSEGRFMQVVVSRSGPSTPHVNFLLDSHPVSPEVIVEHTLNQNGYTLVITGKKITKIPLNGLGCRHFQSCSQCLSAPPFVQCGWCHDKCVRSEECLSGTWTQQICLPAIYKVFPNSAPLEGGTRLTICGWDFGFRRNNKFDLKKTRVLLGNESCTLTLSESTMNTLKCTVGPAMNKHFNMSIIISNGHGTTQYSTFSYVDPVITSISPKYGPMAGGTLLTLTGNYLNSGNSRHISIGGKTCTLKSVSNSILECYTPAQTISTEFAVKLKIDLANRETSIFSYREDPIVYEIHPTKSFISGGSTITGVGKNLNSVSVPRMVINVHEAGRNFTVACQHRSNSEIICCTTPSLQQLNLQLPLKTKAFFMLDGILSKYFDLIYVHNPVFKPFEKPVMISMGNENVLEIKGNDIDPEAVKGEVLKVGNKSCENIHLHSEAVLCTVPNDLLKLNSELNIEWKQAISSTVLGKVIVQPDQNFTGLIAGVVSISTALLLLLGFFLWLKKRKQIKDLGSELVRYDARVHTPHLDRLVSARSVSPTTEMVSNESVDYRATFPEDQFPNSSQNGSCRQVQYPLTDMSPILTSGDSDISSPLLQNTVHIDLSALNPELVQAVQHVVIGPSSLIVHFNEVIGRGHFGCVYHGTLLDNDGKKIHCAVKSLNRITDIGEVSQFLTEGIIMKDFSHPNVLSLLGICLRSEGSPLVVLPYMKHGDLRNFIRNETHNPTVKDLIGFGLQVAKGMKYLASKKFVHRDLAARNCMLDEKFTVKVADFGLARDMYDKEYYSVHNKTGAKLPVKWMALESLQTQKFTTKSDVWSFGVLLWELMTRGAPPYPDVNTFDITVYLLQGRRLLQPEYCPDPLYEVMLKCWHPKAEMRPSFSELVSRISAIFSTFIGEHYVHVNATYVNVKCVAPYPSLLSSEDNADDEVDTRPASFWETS

Row | Compound | Ki (10 μM polyGluTyr) [nM] | Ki [nM]
1 | Clc1cccc(Nc2ccc3nnc(COc4ccc5c(c4)OCO5)n3n2)c1 [Compound 503] |  | > 2000
2 | CS(=O)(=O)c1ccc(Cc2nnc3ccc(Nc4cccc(Cl)c4)nn23)cc1 [Compound 364] |  | > 2000
3 | NC(c1ccc(F)cc1)c1nnc2ccc(Nc3cccc(Cl)c3)nn12 (centres unmarked) [Compound 492] |  | 100 to 2000
4 | Fc1cc(F)cc(Nc2nn3c(Cc4ccc5c(c4)OCO5)nnc3s2)c1 [Compound 127] | < 100 | 

Other lines, results leading:

Row | Ki (10 μM polyGluTyr) [nM] | Ki [nM] | Compound
5 | < 100 |  | Oc1ccc(Cc2nnc3sc(Nc4cc(Cl)ccc4Cl)nn23)cc1 [Compound 77]
6 | 100 to 2000 |  | CC(O)c1cccc(Nc2ccc3nnc(Cc4ccc(O)c(F)c4)n3n2)c1 (centres unmarked) [Compound 256]
7 | < 100 |  | Oc1ccc(Cc2nnc3ccc(NC4CCCCC4)nn23)cc1 [Compound 214]
8 |  | 100 to 2000 | COc1ccc(Cc2nnc3ccc(Nc4cccc(Cl)c4)nn23)cc1Br [Compound 437]

Reference: patent US7998987B2, “Inhibitors of c-Met and uses thereof” (Vertex Pharmaceuticals Incorporated, priority 2005, dated 2011)
